Tested on: HIV-1 strain IIIB
Test: Anti-HIV-1 cell culture assay (EC50), XTT cytopathic effect
Type: cell-based
Details: Human immunodeficiency virus 1, 120 h; MT2 cells infected with wild-type HIV-1 IIIB, 5 days; read-out: protease inhibition activity represented by HIV EC50

EC50: > 20 µM
Compound: CC(C)c1nc(CN(C)C(=O)N[C@@H](CCN2CCOCC2)C(=O)N[C@H](CC[C@H](Cc2ccccc2)NC(=O)OCc2cncs2)Cc2ccccc2)cs1 [Example S]

Source: US8383655B2, “Modulators of pharmacokinetic properties of therapeutics” (Gilead Sciences, Inc., priority 2006, dated 2013)
